Series [1] relates to metabolic enzymes essential for carbohydrate absorption. Description: Selectivity of inhibition of carbohydrate metabolism enzymes (FIG. 4). Type of series: biochemical. As to conditions: 100 μM, as compared with Compound 4 to 6.
Description: The mixtures were pre-cultured at a temperature of 37° C. for 10 minutes, and 25 μl of 0.5% starch solution was added thereto, followed by being cultured at a temperature of 37° C. for 10 minutes. Then, the mixtures were cultured again at a temperature of 100° C. for 5 minutes to stop the reaction, and the mixtures were cooled.
25 μl of DNS was added to the cooled reaction solutions, and a color reaction was induced at a temperature of 100° C. for 5 minutes. The resulting solutions were cooled again. The solutions in which the color reaction was induced were transferred to a 96-well plate, and absorbance thereof was measured at a wavelength of 540 nm by using a 96-well microplate reader.
Here, the inhibitory effect was calculated according to Equation 1: Enzymatic inhibitory activity=(1−Ax/A0)×100% [Equation 1] • Ax indicates an absorbance value of a control group • A0 indicates an absorbance value of a test group upon treatment of isonitramine
The subject of the next series is zf preproinsulin (insa). Description: Insulin expression in zebrafish embryo (RT-PCR). To be noted: FIG. 8; zebrafish embryo 96 hpf treated 48 hours. In kind it is in vivo. The procedure: (§1) In the experiment performed to verify the effect on the amount of insulin secretion, the zebrafish embryo underwent 96 hour post-fertilization (hpf) was exuviated, and then, treated with isonitramine for 48 hours. In the experiment performed to verify the effect on gluconeogenesis, 100 mM cyclic AMP (cAMP) and 100 mM dexamethasone (DEX) were simultaneously treated with isonitramine, and then, cultured for 48 hours.
(§2) From the cultured embryo above, TRIzol (available from Invitrogen) was used to isolate mRNA, and the isolated RNA was synthesized to cDNA by using iScript cDNA Synthesis Kit (available from Bio-Rad). Afterwards, to amplify the cDNA, primers listed in Table 2 were used, wherein each primer was purchased from Bioneer.

A further series deals with HIT-T15 cells. In words: Insulin secretion of HIT-T15 cells (insulin ELISA). Type of series: cell-based. As to conditions: FIG. 7. The procedure: To identify effects of isonitramine derivatives on insulin secretion, a type of insulin cells, e.g., HIT-T15 cells, were obtained by the Korean Cell Line Back, and then, subcultured. In detail, the HIT-T15 cells were cultured in a RPMI1640 medium (available from invitrogen. Co, USA) supplemented with 10% fetal bovine serum (FBS, available from invitrogen. Co, New Zealand 10091-148), 100 mu/ml of penicillin, and 100 μg/ml of streptomycin, under humidification conditions of a temperature of 37° C. and 5% CO2.
Insulin secretion influenced by (+)-isonitramine was measured according to the recommended method using insulin ELISA kit (Cat.10-1113-01, available from Mercodia Company). First, the HIT-T15 cells were loaded to a 96-well plate at a concentration of 5×10^4 cells/well, and cultured until reaching 70% to 80% cell confluency in an incubator at a temperature of 37° C. in a CO2 incubator. Then, the cells were pre-treated with 500 μM alloxan, which induces a pancreatic-specific toxic response, for 30 minutes. Afterwards, (+)-isonitramine was added to each well, and cultured for 24 hours. The culture solution was collected therefrom, and subjected to a centrifugation at a speed of about 15,000 rpm for 3 minutes. […] The changes resulted from the termination of the reaction were measured by using an ELISA-reader (VERSA max, micro-reader, MDS. Co, USA) at a wavelength of 450 nm.
(An ELISA detects its analyte on a solid surface through an enzyme-linked reagent.)

A further series relates to adiponectin. In words: RT-PCR mRNA expression in adipocytes: adiponectin. In kind it is cell-based, mouse. To be noted: FIG. 3, β-actin internal control.
In series [2] the test system is 3T3-L1 mouse preadipocytes. In words: Adipocyte differentiation of 3T3-L1 preadipocytes (Nile red staining). Type of series: cell-based. As to conditions: FIG. 2A. On the procedure: (§3) 3T3-L1 mouse preadipocytes were cultured in a Dulbecco's modified Eagle's medium (DMEM) supplemented with 10% newborn calf serum (Gibco BRL, NY, USA) and antibiotics (100 U/ml penicillin and 100 μg/ml streptomycin, Gibco BRL, NY, USA) in an incubator under humidification conditions of a temperature of 37 r and 5% CO2.
(§4) Afterwards, the cultured 3T3-L1 mouse cells were treated with 0.5 mM 1-methyl-3-isobutylxanthine purchased from Sigma (St. Louis, Mo.), 1 μM dexamethasone, 1 μg/mL insulin, and 10% fetal bovine serum (FBS, Gibco BRL), and then, cultured for 2 days to induce differentiation. After 2 days, the cultured medium was replaced with a fresh DMEM supplemented with 10% FBS and 1 μg/mL insulin. For the next 4 days, the cultured medium was replaced with a fresh DMEM supplemented with 10% FBS every day.
The undifferentiated or differentiated cells were washed three times with phosphate-buffered saline (PBS), and then, fixed with 4% […] (PFA) at room temperature for 1 hour. Afterwards, the resulting cells were washed three times with PBS, and stained with 0.5 μg/ml of nile red (available from Sigma, St. Louis, Mo.) for 10 minutes. Following the completion of the staining, the resulting cells were washed with PBS, and the nuclei thereof were stained again with 4′-6-diamidino-2-phenylindole, (DAPI, available from Invitrogen). […]

Series [3] has as its system phosphoenolpyruvate carboxykinase (PEPCK). In words: PEPCK expression in zebrafish embryo (RT-PCR). Type of series: in vivo. As to conditions: FIG. 9, with 100 mM cAMP and 100 mM dexamethasone, 48 hours. On the procedure: as §1, §2
The test system of the next series is zebrafish larvae. In words: Zebrafish toxicity (FIG. 5). In kind it is in vivo. To be noted: zebrafish model.
The target in another series is T1, porcine α-amylase (Sus scrofa, UniProt P00690).
T1 construct: purchased Sigma
T1 sequence (P00690 16-511): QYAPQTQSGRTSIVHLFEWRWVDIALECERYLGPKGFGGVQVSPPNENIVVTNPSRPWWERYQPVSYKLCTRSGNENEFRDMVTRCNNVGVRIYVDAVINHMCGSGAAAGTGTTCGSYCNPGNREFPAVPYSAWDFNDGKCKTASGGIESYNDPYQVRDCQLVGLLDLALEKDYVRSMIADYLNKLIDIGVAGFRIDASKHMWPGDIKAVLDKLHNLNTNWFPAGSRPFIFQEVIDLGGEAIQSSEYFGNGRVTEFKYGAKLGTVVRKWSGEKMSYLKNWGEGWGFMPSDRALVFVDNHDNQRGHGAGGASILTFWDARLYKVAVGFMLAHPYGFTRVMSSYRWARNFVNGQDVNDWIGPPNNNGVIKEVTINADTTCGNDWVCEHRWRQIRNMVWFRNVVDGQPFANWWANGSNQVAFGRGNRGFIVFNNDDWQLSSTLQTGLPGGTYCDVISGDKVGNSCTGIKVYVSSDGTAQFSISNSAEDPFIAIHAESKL
Description: Inhibitory effect on porcine α-amylase. Type of series: biochemical. To be noted: FIG. 4; 100 μM, pH 6.8, starch substrate. The procedure:
(§5) A glucose assay kit was purchased for use from Youngdong Company (Seoul, Korea). In addition, from Sigma Company, porcine α-amylase, yeast α-glucosidase, 3,5-dinitrosalicylic acid (DNS), p-nitrophenol glucoside (pNPG), rat intestinal acetone powder, sucrose, and maltose were purchased. Soluble starch was obtained from Samchun Chemical Company (Seoul, Korea), and Acarbose was purchased from Tokyo chemical industry Company (Tokyo, Japan).
5 μl of α-amylase (0.1 U/mL) was diluted with 50 mM phosphate buffer (pH 6.8), and the diluted solution was mixed with each of 100 μM (+)-isonitramine (1) or Compound 2 to 6 of Example 1. In addition, as a positive control group, Acarbose was mixed at the same concentration with (+)-isonitramine (1). […]
25 μl of DNS was added to the cooled reaction solutions, and a color reaction was induced at a temperature of 100° C. for 5 minutes. […] The solutions in which the color reaction was induced were transferred to a 96-well plate, and absorbance thereof was measured at a wavelength of 540 nm by using a 96-well microplate reader.
Here, the inhibitory effect was calculated according to Equation 1: Enzymatic inhibitory activity=(1−Ax/A0)×100% [Equation 1] • Ax indicates an absorbance value of […] upon treatment of isonitramine

For series [4], the system named is 3T3-L1 mouse preadipocytes. In words: Cytotoxicity in adipocyte differentiation experiment. In kind it is cell-based. As to conditions: FIG. 3; adipocytes.
Another series deals with zebrafish. Description: Postprandial hyperglycemia in diabetic-inducible (streptozocin) zebrafish. In kind it is in vivo. To be noted: FIG. 6; STZ-injected zebrafish fed flake mixed with compound at various concentrations for 1 hour. The procedure: The zebrafish was anesthetized by placing it in water at a temperature of 8° C. for 20 seconds.
For intraperitoneal injection, 350 mg/kg of a solution of 0.9% streptozocin (available from Sigma, St. Louis, Mo.) in 0.09% NaCl solution was injected with a syringe having 25 gauge needle (available from Trajan Scientific, Australia). Here, to a control group of zebrafish, the same amount of PBS was injected intraperitoneally. After the completion of the injection, the test and control groups of zebrafish were bread at a temperature of 24° C.
The zerafish was subjected to intraperitoneal injection of STZ or PBS three times (350 mg/kg) for a week. After the final injection, the zerafish was fed with commercial flake food (available from Tetrabits tropical flakes, Tetra, Germany) for 5 days.
After fasting for 24 hours, the zebrafish to which PBS was injected was fed with commercial flask food, and the zebrafish to which STZ was injected was fed with flake mixed with (+)-isonitramine (1) at various concentrations, for 1 hour. Afterwards, plasma blood of each zebrafish was enzymatically measured by using a glucose trinder kit.

The subject of another series is aP2. In words: RT-PCR mRNA expression in adipocytes: aP2. In kind it is cell-based, mouse. To be noted: FIG. 3, β-actin internal control.
The subject of another series is C/EBPα. As to conditions: FIG. 3; RT-PCR, β-actin internal control.
The next series has as its system PPARγ. Description: RT-PCR mRNA expression in adipocytes: PPARγ. Type of series: cell-based, mouse. As to conditions: FIG. 3, β-actin internal control.
In the next series the target is T2, yeast α-glucosidase (Saccharomyces cerevisiae, UniProt P53341).
T2 construct: purchased Sigma
T2 sequence (P53341 whole entry): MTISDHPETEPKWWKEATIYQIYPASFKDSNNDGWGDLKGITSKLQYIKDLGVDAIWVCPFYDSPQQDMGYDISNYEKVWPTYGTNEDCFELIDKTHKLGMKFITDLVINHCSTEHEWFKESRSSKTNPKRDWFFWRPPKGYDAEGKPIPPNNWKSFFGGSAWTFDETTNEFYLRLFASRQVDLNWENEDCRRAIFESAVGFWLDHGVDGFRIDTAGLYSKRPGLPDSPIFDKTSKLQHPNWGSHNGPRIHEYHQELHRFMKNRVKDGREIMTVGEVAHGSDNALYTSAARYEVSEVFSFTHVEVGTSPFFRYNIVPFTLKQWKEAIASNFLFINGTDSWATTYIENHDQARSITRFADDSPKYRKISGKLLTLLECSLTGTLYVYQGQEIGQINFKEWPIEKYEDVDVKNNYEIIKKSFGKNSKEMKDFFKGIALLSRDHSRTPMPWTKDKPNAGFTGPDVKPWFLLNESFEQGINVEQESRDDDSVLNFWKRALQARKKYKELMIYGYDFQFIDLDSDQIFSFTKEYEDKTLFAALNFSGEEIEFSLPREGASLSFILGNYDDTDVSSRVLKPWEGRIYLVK
In words: Inhibitory effect on yeast α-glucosidase (pNPG substrate). Type of series: biochemical. As to conditions: FIG. 4; 100 μM, pH 5.6, pNPG substrate. The procedure:
as §5
5 μl of […] (0.1 U/mL) was diluted with 50 mM sodium acetate buffer (pH 5.6), and the diluted solution was mixed with each of 100 μM (+)-isonitramine (1) or Compound 2 to 6 of Example 1. In addition, as a positive control group, Acarbose was mixed at the same concentration with (+)-isonitramine (1).
The mixtures were pre-cultured at a temperature of 37° C. for 10 minutes, and 25 μl of pNPG was added thereto, followed by being cultured at a temperature of 60° C. for 10 minutes. Then, 1N NaOH was added thereto to stop the reaction.
Afterwards, the resulting solution in which a color reaction was induced was transferred to a 96-well plate, and absorbance thereof was measured at a wavelength of 405 nm by using a 96-well microplate reader.

Another series has as its system LPL. In words: RT-PCR mRNA expression in adipocytes: LPL. Type of series: cell-based, mouse. To be noted: FIG. 3, β-actin internal control.
The test system of series [5] is 3T3-L1 mouse preadipocytes. Description: Analysis of triglyceride concentration in differentiated adipocytes. Type of series: cell-based. As to conditions: FIG. 2B; adipocytes differentiated 8 days with 100 μM or 500 μM. The procedure: as §3, §4
The concentration of triglyceride in the cells was measured by using a triglyceride reagent purchased from Sigma and a free glycerol reagent.
The adipocytes were differentiated for 8 days with (+)-isonitramine 1 at a concentration of 100 μM or 500 μM, in a 6-well plate.
To analyze the concentration of triglyceride in the cells, the cells were washed with PBS, and then, lysed with 100 μl of a lysis buffer. […]
Following the completion of the culturing, the absorbance of the cells was measured by using a spectrophotometer at a wavelength of 540 nm.

The structures appear in SMILES notation.

Description for C/EBPα: (§6) According to the manufacturer's instructions, total cell RNA of the undifferentiated adipocytes and differentiated adipocytes was extracted by using Trizol (available from Invitrogen).
(§7) The RNA (4 μg) was reverse-transcribed into cDNA by using M-MLV reverse transcriptase (available from Promega). Accordingly, the expression of peroxisome proliferator-activated receptor γ (PPARγ), CCAAT/enhancer binding protein-α (C/EBPα), adipocyte protein 2 (aP2), lipoprotein lipase (LPL), and adiponectin was each confirmed.
(§8) The variable number of cycles was used to identify the amplification occurred in the linear phase.
(§9) In the PCR amplification, β-actin was used as an internal control group. The PCR products were separated by using 2.0% agarose gel, followed by being visualized by RedSafe nucleic acid staining (available from Intron, Korea) and UV irradiation.
Description for LPL: as §6, §7, §8, §9
Description for PPARγ: as §6, §7, §8, §9
Description for aP2: as §6, §7, §8, §9
Description for adiponectin: as §6, §7, §8, §9

Regarding `O[C@@H]1CCCC[C@]12CCCNC2` [(+)-isonitramine (1), (+)-isonitramine], in series [1], the “selective inhibitory effects on metabolic enzymes essential for carbohydrate absorption” value is recorded as “selective inhibitory effects”. Moreover, in the series with zf preproinsulin (insa), the expression of insulin result is listed as “increased”. Moreover, the insulin secretion result with HIT-T15 cells (HIT-T15 cells pre-treated with 500 μM alloxan 30 minutes, then compound 24 hours) is on record as “increasing the insulin secretion in a concentration-dependent manner”. Besides, the “mRNA expression of adiponectin” value in the series on adiponectin was “weakened”. Further, in series [2], the “differentiation of 3T3-L1 mouse preadipocytes into mature adipocytes” value was “inhibited the differentiation”. Moreover, the “inhibitory effect on the expression of PEPCK” value in [3] was “significantly increased in proportion to the concentration”. Also, in the series on zebrafish larvae, the cardiovascular toxicity entry is given as “no” and the developmental toxicity result is listed as “no”. The “inhibition of α-amylase” value against porcine α-amylase is given as “hardly inhibited”. For the same molecule, the cytotoxicity result in series [4] is “without cytotoxicity”. For the same molecule, the blood glucose entry in the series on zebrafish is “reduction of blood glucose in a concentration-dependent manner”. Moreover, the “mRNA expression of aP2” value in the series on aP2 was “weakened”. The “mRNA expression of C/EBPα” value in the series with C/EBPα is on record as “inhibited”. In the series on PPARγ, the “mRNA expression of PPARγ” value is on record as “inhibited”. The “inhibition of α-glucosidase” value at yeast α-glucosidase is on record as “inhibiting”. For the same molecule, in the series on LPL, the “mRNA expression of LPL” value is “weakened”. Besides, the concentration of triglyceride result in series [5] is given as “decreased the concentration of triglyceride in a concentration-dependent manner”.
On to `O=C1NC(=O)C(=O)C(=O)N1` [alloxan, reference compound], for which the insulin secretion with HIT-T15 cells (HIT-T15 cells treated with 500 μM alloxan, normal state 33.39±1.12 ng/mL (n=4)) turned out to be 18.92 ± 0.43 ng/mL.

Values taken from US10537559B2, “Isonitramine compound and composition containing same for preventing or treating metabolic diseases” (INJE UNIVERSITY INDUSTRY-ACADEMIC COOPERATION FOUNDATION, priority 2015, dated 2020).
